# Laboratory results: patent publication US4990613A, “(1R,5S,6S)-2-[(6,7-dih ydro-5H-pyrazolo[1,2-a][1,2,4]triazolium-6-yl)]thio-6-[R-1-hydroxyethyl]- 1-methyl-carbapenem-3-carboxylate and intermediate therefor” (Lederle (Japan), Ltd., priority 1987, dated 1991)
# Columns and labels:
# physchem = conditions: amorphous solid storage
# [1] = over a period of ten days
# [2] = system: Streptococcus pyogenes Cook; experiment: Antibacterial test, agar plate dilution method; conditions: 37° C., 18 hours, MH agar
# [3] = system: Providencia rettgeri IFO 3850; experiment: Antibacterial test, agar plate dilution method; conditions: 37° C., 18 hours, MH agar
# Proteus vulgaris HX-19 = experiment: Antibacterial test, agar plate dilution method; conditions: 37° C., 18 hours, MH agar
# [4] = system: Salmonella typhimurium IID971; experiment: Antibacterial test, agar plate dilution method; conditions: 37° C., 18 hours, MH agar
# [5] = system: Micrococcus luteus ATCC9341; experiment: Antibacterial test, agar plate dilution method; conditions: 37° C., 18 hours, MH agar
# Enterobacter cloacae 963 = experiment: Antibacterial test, agar plate dilution method; conditions: 37° C., 18 hours, MH agar
# [6] = system: Morganella morganii IFO3848; experiment: Antibacterial test, agar plate dilution method; conditions: 37° C., 18 hours, MH agar
# [7] = system: Staphylococcus aureus MS352; experiment: Antibacterial test, agar plate dilution method; conditions: 37° C., 18 hours, MH agar
# [8] = system: Serratia marcescens IAM1184; experiment: Antibacterial test, agar plate dilution method; conditions: 37° C., 18 hours, MH agar
# [9] = system: Pseudomonas aeruginosa NCTC 10490; experiment: Antibacterial test, agar plate dilution method; conditions: 37° C., 18 hours, MH agar
# [10] = system: Pseudomonas cepacia GN 11164; experiment: Antibacterial activity against clinically isolated β-lactamase producing strains; format: cell-based; conditions: cephalosporinase producing strain, 18 to 20 hours
# Procedure: (§1) A solution of a cephalosporinase producing strain stored by Episome Research Institute, which was prepared by incubating the strain in a sensitivity test broth (STB; product of Nissui K.K.) for 18 hours, was diluted with a fresh STB solution to contain 10^5 cells per milliliter and the diluted solution was then inoculated as spots with a microplanter on a sensitivity disk agar-N (SDA; product of Nissui K.K.) containing a test compound. The disk agar was then incubated for 18 to 20 hours. A minimum inhibitory concentration was determined as a minimum concentration in which the test microorganism had no longer grown after a 18 to 20 hour incubation.
# [11] = system: Providencia rettgeri GN 4430; experiment: as above; format: cell-based; conditions: cephalosporinase producing strain, 18 to 20 hours
# Procedure: as §1
# [12] = system: Providencia rettgeri GN 4762; experiment: as above; format: cell-based; conditions: cephalosporinase producing strain, 18 to 20 hours
# Procedure: as §1
# Proteus morganii GN 5375 = experiment: as above; format: cell-based; conditions: cephalosporinase producing strain, 18 to 20 hours
# Procedure: as §1
# Proteus morganii GN 5307 = experiment: as above; format: cell-based; conditions: cephalosporinase producing strain, 18 to 20 hours
# Procedure: as §1
# [13] = system: Citrobactor freundii GN 346; experiment: as above; format: cell-based; conditions: cephalosporinase producing strain, 18 to 20 hours
# Procedure: as §1
# [14] = system: Enterobacter cloacae GN 7467; experiment: as above; format: cell-based; conditions: cephalosporinase producing strain, 18 to 20 hours
# Procedure: as §1
# Serratia marcescens L-82 = experiment: as above; format: cell-based; conditions: cephalosporinase producing strain, 18 to 20 hours
# Procedure: as §1
# [15] = system: Serratia marcescens GN 10857; experiment: as above; format: cell-based; conditions: cephalosporinase producing strain, 18 to 20 hours
# Procedure: as §1
# Escherichia coli No. 96 = experiment: as above; format: cell-based; conditions: cephalosporinase producing strain, 18 to 20 hours
# Procedure: as §1
# Proteus vulgaris GN 7919 = experiment: as above; format: cell-based; conditions: cephalosporinase producing strain, 18 to 20 hours
# Procedure: as §1
# [16] = system: Escherichia coli No. 1501; experiment: as above; format: cell-based; conditions: cephalosporinase producing strain, 18 to 20 hours
# Procedure: as §1
# [17] = system: Providencia rettgeri GN 5284; experiment: as above; format: cell-based; conditions: cephalosporinase producing strain, 18 to 20 hours
# Procedure: as §1
# [18] = system: Pseudomonas aeruginosa GN 918; experiment: as above; format: cell-based; conditions: cephalosporinase producing strain, 18 to 20 hours
# Procedure: as §1
# [19] = system: Enterobacter cloacae GN 7471; experiment: as above; format: cell-based; conditions: cephalosporinase producing strain, 18 to 20 hours
# Procedure: as §1
# [20] = system: Klebsiella oxytoca GN 10650; experiment: as above; format: cell-based; conditions: cephalosporinase producing strain, 18 to 20 hours
# Procedure: as §1
# Proteus vulgaris GN 76 = experiment: as above; format: cell-based; conditions: cephalosporinase producing strain, 18 to 20 hours
# Procedure: as §1
# [21] = system: Citrobactor freundii GN 7391; experiment: as above; format: cell-based; conditions: cephalosporinase producing strain, 18 to 20 hours
# Procedure: as §1
# [22] = system: Pseudomonas aeruginosa GN 10362; experiment: as above; format: cell-based; conditions: cephalosporinase producing strain, 18 to 20 hours
# Procedure: as §1
# [23] = system: Enterobacter cloacae GN 5797; experiment: as above; format: cell-based; conditions: cephalosporinase producing strain, 18 to 20 hours
# Procedure: as §1
# Serratia marcescens L-65 = experiment: as above; format: cell-based; conditions: cephalosporinase producing strain, 18 to 20 hours
# Procedure: as §1
# Proteus vulgaris GN 4413 = experiment: as above; format: cell-based; conditions: cephalosporinase producing strain, 18 to 20 hours
# Procedure: as §1
# Escherichia coli GN 5482 = experiment: as above; format: cell-based; conditions: cephalosporinase producing strain, 18 to 20 hours
# Procedure: as §1
# Proteus morganii GN 5407 = experiment: as above; format: cell-based; conditions: cephalosporinase producing strain, 18 to 20 hours
# Procedure: as §1
# [24] = system: Pseudomonas aeruginosa GN 10367; experiment: as above; format: cell-based; conditions: cephalosporinase producing strain, 18 to 20 hours
# Procedure: as §1
# [25] = system: Salmonella enteritidis G14; experiment: Antibacterial test, agar plate dilution method; conditions: 37° C., 18 hours, MH agar
# [26] = system: Pseudomonas aeruginosa IFO 3445; experiment: Antibacterial test, agar plate dilution method; conditions: 37° C., 18 hours, MH agar
# [27] = system: Escherichia coli NIHJ JC-2; experiment: Antibacterial test, agar plate dilution method; conditions: 37° C., 18 hours, MH agar
# [28] = system: Salmonella paratyphi 1015; experiment: Antibacterial test, agar plate dilution method; format: cell-based; conditions: 37° C., 18 hours, MH agar
# [29] = system: Staphylococcus aureus Terajima; experiment: Antibacterial test, agar plate dilution method; conditions: 37° C., 18 hours, MH agar
# [30] = system: Klebsiella pneumoniae PCI-602; experiment: Antibacterial test, agar plate dilution method; conditions: 37° C., 18 hours, MH agar
# Proteus vulgaris OX-19 = experiment: Antibacterial test, agar plate dilution method; conditions: 37° C., 18 hours, MH agar
# [31] = system: Escherichia coli K12 C600; experiment: Antibacterial test, agar plate dilution method; format: cell-based; conditions: 37° C., 18 hours, MH agar
# [32] = system: Salmonella schottmuelleri 8006; experiment: Antibacterial test, agar plate dilution method; conditions: 37° C., 18 hours, MH agar
# Salmonella typhi 901 = experiment: Antibacterial test, agar plate dilution method; format: cell-based; conditions: 37° C., 18 hours, MH agar
# [33] = system: Staphylococcus aureus FDA 209P JC-1; experiment: Antibacterial test, agar plate dilution method; conditions: 37° C., 18 hours, MH agar
# [34] = system: Enterobacter aerougenes ATCC13048; experiment: Antibacterial test, agar plate dilution method; conditions: 37° C., 18 hours, MH agar
# [35] = system: Bacillus subtilis ATCC6633; experiment: Antibacterial test, agar plate dilution method; conditions: 37° C., 18 hours, MH agar
# [36] = system: Proteus mirabilis IFO3849; experiment: Antibacterial test, agar plate dilution method; conditions: 37° C., 18 hours, MH agar
compound,measurement,setting,value
C[C@@H](O)[C@H]1C(=O)N2C(C(=O)[O-])=C(SC3Cn4cnc[n+]4C3)[C@H](C)[C@H]12 (stereo partly drawn) [amorphous form],remaining at 240 h,physchem,~40%
C[C@@H](O)[C@H]1C(=O)N2C(C(=O)[O-])=C(SC3Cn4cnc[n+]4C3)[C@H](C)[C@H]12 (stereo partly drawn) [crystalline form],loss of potency on storage,[1],no appreciable loss of potency
"(1R, 5S, 6S)-2-[4-pyrazolidinyl]thio-6-[(R)-1-hydroxyethyl]-1-methyl-carbapenem-3-carboxylic acid [Compound 14]",MIC,[2],0.025 µg/mL
same,MIC,[3],0.2 µg/mL
same,MIC,Proteus vulgaris HX-19,0.1 µg/mL
same,MIC,[4],0.1 µg/mL
same,MIC,[5],0.1 µg/mL
same,MIC,Enterobacter cloacae 963,0.1 µg/mL
same,MIC,[6],0.1 µg/mL
same,MIC,[7],0.1 µg/mL
same,MIC,[8],0.2 µg/mL
same,MIC,[9],0.78 µg/mL
same,MIC,[10],0.39 µg/mL
same,MIC,[11],0.2 µg/mL
same,MIC,[12],0.2 µg/mL
same,MIC,Proteus morganii GN 5375,1.56 µg/mL
same,MIC,Proteus morganii GN 5307,0.39 µg/mL
same,MIC,[13],0.78 µg/mL
same,MIC,[14],1.56 µg/mL
same,MIC,Serratia marcescens L-82,0.1 µg/mL
same,MIC,[15],1.56 µg/mL
same,MIC,Escherichia coli No. 96,0.025 µg/mL
same,MIC,Proteus vulgaris GN 7919,1.56 µg/mL
same,MIC,[16],0.025 µg/mL
same,MIC,[17],0.2 µg/mL
same,MIC,[18],1.56 µg/mL
same,MIC,[19],0.1 µg/mL
same,MIC,[20],0.1 µg/mL
same,MIC,Proteus vulgaris GN 76,1.56 µg/mL
same,MIC,[21],0.78 µg/mL
same,MIC,[22],1.56 µg/mL
same,MIC,[23],0.1 µg/mL
same,MIC,Serratia marcescens L-65,0.2 µg/mL
same,MIC,Proteus vulgaris GN 4413,1.56 µg/mL
same,MIC,Escherichia coli GN 5482,0.025 µg/mL
same,MIC,Proteus morganii GN 5407,1.56 µg/mL
same,MIC,[24],1.56 µg/mL
same,MIC,[25],0.2 µg/mL
same,MIC,[26],0.78 µg/mL
same,MIC,[27],0.05 µg/mL
same,MIC,[28],0.39 µg/mL
same,MIC,[29],0.025 µg/mL
same,MIC,[30],0.05 µg/mL
same,MIC,Proteus vulgaris OX-19,0.025 µg/mL
same,MIC,[31],0.2 µg/mL
same,MIC,[32],0.2 µg/mL
same,MIC,Salmonella typhi 901,0.025 µg/mL
same,MIC,[33],0.05 µg/mL
same,MIC,[34],0.39 µg/mL
same,MIC,[35],0.1 µg/mL
same,MIC,[36],0.39 µg/mL
